Source: US8802597B2, “Herbicidal pyrimidines” (E I du Pont de Nemours and Company, priority 2003, dated 2014)

Columns and labels:
Format in all cases: in vivo
[1] = test system: Italian ryegrass (Lolium multiflorum); test: Test C postemergence; conditions: for Ryegrass, Italian plant response rating: 125 g ai/ha, scale 0 to 100 (0 no effect, 100 complete control)
Outline: (§1)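 Applications: preemergence onto seeded soil and postemergence onto 1- to 4-leaf seedlings, compound carried in non-phytotoxic solvent plus surfactant. Kept in greenhouse 12 to 14 days. Scored visually relative to untreated controls, 0 (no effect) to 100 (complete control).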

[2] = test system: blackgrass (Alopecurus myosuroides); test: Test C postemergence; conditions: for Blackgrass plant response rating: 125 g ai/ha, scale 0 to 100 (0 no effect, 100 complete control)
Outline: as §1

[3] = test system: canarygrass (Phalaris minor); test: Test C postemergence; conditions: for Canarygrass plant response rating: 125 g ai/ha, scale 0 to 100 (0 no effect, 100 complete control)
Outline: as §1

[4] = test system: downy brome (Bromus tectorum); test: Test C postemergence; conditions: for Bromegrass, Downy plant response rating: 125 g ai/ha, scale 0 to 100 (0 no effect, 100 complete control)
Outline: as §1

[5] = test system: green foxtail (Setaria viridis); test: Test C postemergence; conditions: for Foxtail, Green plant response rating: 125 g ai/ha, scale 0 to 100 (0 no effect, 100 complete control)
Outline: as §1

[6] = test system: wheat (Triticum aestivum); test: Test C postemergence; conditions: for Wheat plant response rating: 125 g ai/ha, scale 0 to 100 (0 no effect, 100 complete control)
Outline: as §1

[7] = test system: wild oat (Avena fatua); test: Test C postemergence; conditions: for Oat, Wild plant response rating: 125 g ai/ha, scale 0 to 100 (0 no effect, 100 complete control)
Outline: as §1

[8] = test system: windgrass (Apera spica-venti); test: Test C postemergence; conditions: for Windgrass plant response rating: 125 g ai/ha, scale 0 to 100 (0 no effect, 100 complete control)
Outline: as §1

[9] = test system: winter barley (Hordeum vulgare); test: Test C postemergence; conditions: for Barley plant response rating: scale 0 to 100 (0 no effect, 100 complete control)
Outline: as §1

[10] = test system: purple redstem (Ammannia coccinea); test: Test E flooded paddy water application; conditions: Flood, 21 days, scale 0 to 100 (0 no effect, 100 complete control)
Outline: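 Weeds sown in sterilized Tama silt loam (2.6% organic matter), greenhouse 29.5/26.7° C, 16-h photoperiod; at 2.0–2.5-leaf stage pots flooded to 3 cm and compound added to paddy water. Visual rating vs untreated controls after 21 days, 0 (no effect) to 100 (complete control).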

[11] = test system: Surinam grass (Brachiaria decumbens); test: Test C pre/postemergence; conditions: Postemergence
Outline: as §1

[12] = test system: corn (Zea mays); test: Test C pre/postemergence; conditions: Postemergence
Outline: as §1

[13] = test system: goosegrass (Eleusine indica); test: Test C pre/postemergence; conditions: Postemergence
Outline: as §1

[14] = 125 g ai/ha, scale 0 to 100 (0 no effect, 100 complete control)

COC(=O)c1nc(-c2ccc(Br)cc2)nc(N)c1Br [Compound 129]
Plant response rating (scale of 0 to 100), Ryegrass, Italian ([1]; 16 g ai/ha): 45 | Plant response rating (scale of 0 to 100), Ryegrass, Italian ([1]; 31 g ai/ha): 55 | Plant response rating (scale of 0 to 100), Ryegrass, Italian ([1]; 62 g ai/ha): 55 | Ryegrass, Italian plant response rating [1]: 60 | Plant response rating (scale of 0 to 100), Blackgrass ([2]; 16 g ai/ha): 35 | Plant response rating (scale of 0 to 100), Blackgrass ([2]; 31 g ai/ha): 45 | Plant response rating (scale of 0 to 100), Blackgrass ([2]; 62 g ai/ha): 50 | Blackgrass plant response rating [2]: 50 | Plant response rating (scale of 0 to 100), Canarygrass ([3]; 16 g ai/ha): 0 | Plant response rating (scale of 0 to 100), Canarygrass ([3]; 31 g ai/ha): 30 | Plant response rating (scale of 0 to 100), Canarygrass ([3]; 62 g ai/ha): 30 | Canarygrass plant response rating [3]: 30 | Plant response rating (scale of 0 to 100), Bromegrass, Downy ([4]; 16 g ai/ha): 0 | Plant response rating (scale of 0 to 100), Bromegrass, Downy ([4]; 31 g ai/ha): 0 | Plant response rating (scale of 0 to 100), Bromegrass, Downy ([4]; 62 g ai/ha): 0 | Bromegrass, Downy plant response rating [4]: 0 | Plant response rating (scale of 0 to 100), Foxtail, Green ([5]; 16 g ai/ha): 40 | Plant response rating (scale of 0 to 100), Foxtail, Green ([5]; 31 g ai/ha): 40 | Plant response rating (scale of 0 to 100), Foxtail, Green ([5]; 62 g ai/ha): 40 | Foxtail, Green plant response rating [5]: 60 | Plant response rating (scale of 0 to 100), Wheat ([6]; 16 g ai/ha): 0 | Plant response rating (scale of 0 to 100), Wheat ([6]; 31 g ai/ha): 35 | Plant response rating (scale of 0 to 100), Wheat ([6]; 62 g ai/ha): 35 | Wheat plant response rating [6]: 35 | Plant response rating (scale of 0 to 100), Oat, Wild ([7]; 16 g ai/ha): 30 | Plant response rating (scale of 0 to 100), Oat, Wild ([7]; 31 g ai/ha): 35 | Plant response rating (scale of 0 to 100), Oat, Wild ([7]; 62 g ai/ha): 40 | Oat, Wild plant response rating [7]: 40 | Plant response rating (scale of 0 to 100), Windgrass ([8]; 16 g ai/ha): 40 | Plant response rating (scale of 0 to 100), Windgrass ([8]; 31 g ai/ha): 45 | Plant response rating (scale of 0 to 100), Windgrass ([8]; 62 g ai/ha): 60 | Windgrass plant response rating [8]: 60 | Plant response rating (scale of 0 to 100), Barley ([9]; 16 g ai/ha): 35 | Plant response rating (scale of 0 to 100), Barley ([9]; 31 g ai/ha): 40 | Barley plant response rating ([9]; 62 g ai/ha): 45 | Barley plant response rating ([9]; 125 g ai/ha): 45 | Redstem plant response rating ([10]; 64 g ai/ha): 75 | Redstem plant response rating ([10]; 125 g ai/ha): 80 | Redstem plant response rating ([10]; 250 g ai/ha): 95 | Plant response rating, Redstem ([10]; 16 g ai/ha): 30 | Plant response rating, Redstem ([10]; 32 g ai/ha): 60

Nc1nc(-c2ccc(Br)cc2)nc(C(=O)O)c1Br [Compound 136]
Plant response rating (scale of 0 to 100), Surinam Grass ([11]; 16 g ai/ha): 55 | Plant response rating (scale of 0 to 100), Surinam Grass ([11]; 31 g ai/ha): 65 | Plant response rating (scale of 0 to 100), Surinam Grass ([11]; 62 g ai/ha): 65 | Surinam Grass plant response rating [11, 14]: 70 | Plant response rating (scale of 0 to 100), Corn ([12]; 16 g ai/ha): 35 | Plant response rating (scale of 0 to 100), Corn ([12]; 31 g ai/ha): 35 | Plant response rating (scale of 0 to 100), Corn ([12]; 62 g ai/ha): 65 | Corn plant response rating [12, 14]: 75 | Plant response rating (scale of 0 to 100), Goosegrass ([13]; 16 g ai/ha): 50 | Plant response rating (scale of 0 to 100), Goosegrass ([13]; 31 g ai/ha): 65 | Plant response rating (scale of 0 to 100), Goosegrass ([13]; 62 g ai/ha): 75 | Goosegrass plant response rating [13, 14]: 80 | Plant response rating (scale of 0 to 100), Ryegrass, Italian ([1]; 16 g ai/ha): 45 | Plant response rating (scale of 0 to 100), Ryegrass, Italian ([1]; 31 g ai/ha): 50 | Plant response rating (scale of 0 to 100), Ryegrass, Italian ([1]; 62 g ai/ha): 60 | Ryegrass, Italian plant response rating [1]: 65 | Plant response rating (scale of 0 to 100), Blackgrass ([2]; 16 g ai/ha): 40 | Plant response rating (scale of 0 to 100), Blackgrass ([2]; 31 g ai/ha): 55 | Plant response rating (scale of 0 to 100), Blackgrass ([2]; 62 g ai/ha): 65 | Blackgrass plant response rating [2]: 65 | Plant response rating (scale of 0 to 100), Canarygrass ([3]; 16 g ai/ha): 40 | Plant response rating (scale of 0 to 100), Canarygrass ([3]; 31 g ai/ha): 45 | Plant response rating (scale of 0 to 100), Canarygrass ([3]; 62 g ai/ha): 55 | Canarygrass plant response rating [3]: 65 | Plant response rating (scale of 0 to 100), Bromegrass, Downy ([4]; 16 g ai/ha): 30 | Plant response rating (scale of 0 to 100), Bromegrass, Downy ([4]; 62 g ai/ha): 45 | Bromegrass, Downy plant response rating [4]: 55 | Plant response rating (scale of 0 to 100), Foxtail, Green ([5]; 16 g ai/ha): 45 | Plant response rating (scale of 0 to 100), Foxtail, Green ([5]; 31 g ai/ha): 65 | Plant response rating (scale of 0 to 100), Foxtail, Green ([5]; 62 g ai/ha): 70 | Foxtail, Green plant response rating [5]: 70 | Plant response rating (scale of 0 to 100), Wheat ([6]; 16 g ai/ha): 20 | Plant response rating (scale of 0 to 100), Wheat ([6]; 31 g ai/ha): 40 | Plant response rating (scale of 0 to 100), Wheat ([6]; 62 g ai/ha): 45 | Wheat plant response rating [6]: 55 | Plant response rating (scale of 0 to 100), Oat, Wild ([7]; 16 g ai/ha): 40 | Plant response rating (scale of 0 to 100), Oat, Wild ([7]; 31 g ai/ha): 45 | Plant response rating (scale of 0 to 100), Oat, Wild ([7]; 62 g ai/ha): 55 | Oat, Wild plant response rating [7]: 60 | Plant response rating (scale of 0 to 100), Windgrass ([8]; 16 g ai/ha): 45 | Plant response rating (scale of 0 to 100), Windgrass ([8]; 31 g ai/ha): 60 | Plant response rating (scale of 0 to 100), Windgrass ([8]; 62 g ai/ha): 65 | Windgrass plant response rating [8]: 65 | Plant response rating (scale of 0 to 100), Barley ([9]; 16 g ai/ha): 40 | Plant response rating (scale of 0 to 100), Barley ([9]; 31 g ai/ha): 50 | Barley plant response rating ([9]; 62 g ai/ha): 50 | Barley plant response rating ([9]; 125 g ai/ha): 55
